Experimental data: PubChem BioAssay AID1845215 (Molecular Pharmacology Branch, DTP, NCI, 2023)

Test system: SW 1271 complex tumor spheroid viability
Test: Anticancer human tumor SW 1271 cell line growth inhibition;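 note: spheroids exposed to agents for seven days before readout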;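 for viability, T/C: percent of DMSO vehicle control luminescence so 100% = vehicle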
Settings: for IC50: curve of first compound; for viability, T/C: stronger effect = lower value; active = viability on the fitted dose curve at most 10% of control; inactive = the rest
Method in brief: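 Single agents and combinations were tested on spheroids built from tumor cells plus HUVEC and hMSC, at half-log dilutions starting at or near clinical Cmax, else 10 microM; final DMSO 0.25% (v/v).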

[1] = second compound 0.003 µM, first compound 0.0316 µM
[2] = second compound 0.003 µM, first compound 0.1 µM
[3] = second compound 0.003 µM, first compound 0.316 µM
[4] = second compound 0.003 µM, first compound 1 µM
[5] = second compound 0.003 µM, first compound 3.16 µM
[6] = second compound 0.003 µM, first compound 10 µM

[2H]c1nc(C)nc([2H])c1-c1cc(NC[C@@H](C)c2cccc3c(C(=O)NC)ccnc23)ncn1 + COc1cc2c(cc1O)CCNC21CSC2c3c(OC(C)=O)c(C)c4c(c3C(COC1=O)N1C(O)C3Cc5cc(C)c(OC)c(O)c5C(C21)N3C)OCO4
active: viability, T/C (second compound 0.000949 µM, first compound 0.1 µM) 4.86% | viability, T/C (second compound 0.000949 µM, first compound 0.316 µM) 4.58% | viability, T/C (second compound 0.000949 µM, first compound 1 µM) 3.72% | viability, T/C (second compound 0.000949 µM, first compound 3.16 µM) 2.73% | viability, T/C (second compound 0.000949 µM, first compound 10 µM) 1.89% | viability, T/C [1] 0.1% | viability, T/C [2] 0.09% | viability, T/C [3] 0.1% | viability, T/C [4] 0.09% | viability, T/C [5] 0.09% | viability, T/C [6] 0.17%
> 10000 nM: IC50 (second compound 30 pM) | IC50 (second compound 94.9 pM)
< 31.6 nM: IC50 (second compound 0.0003 µM) | IC50 (second compound 0.000949 µM) | IC50 (second compound 0.003 µM)
inactive: viability, T/C (second compound 30 pM, first compound 0.0316 µM) 104% | viability, T/C (second compound 30 pM, first compound 0.1 µM) 93.9% | viability, T/C (second compound 30 pM, first compound 0.316 µM) 98.7% | viability, T/C (second compound 30 pM, first compound 1 µM) 96.4% | viability, T/C (second compound 30 pM, first compound 3.16 µM) 93.4% | viability, T/C (second compound 30 pM, first compound 10 µM) 90.1% | viability, T/C (second compound 94.9 pM, first compound 0.0316 µM) 60.4% | viability, T/C (second compound 94.9 pM, first compound 0.1 µM) 68.6% | viability, T/C (second compound 94.9 pM, first compound 0.316 µM) 75.6% | viability, T/C (second compound 94.9 pM, first compound 1 µM) 69.9% | viability, T/C (second compound 94.9 pM, first compound 3.16 µM) 63.4% | viability, T/C (second compound 94.9 pM, first compound 10 µM) 51.7% | viability, T/C (second compound 0.0003 µM, first compound 0.0316 µM) 33.1% | viability, T/C (second compound 0.0003 µM, first compound 0.1 µM) 35.1% | viability, T/C (second compound 0.0003 µM, first compound 0.316 µM) 33.4% | viability, T/C (second compound 0.0003 µM, first compound 1 µM) 30.1% | viability, T/C (second compound 0.0003 µM, first compound 3.16 µM) 34.2% | viability, T/C (second compound 0.0003 µM, first compound 10 µM) 31.6% | viability, T/C (second compound 0.000949 µM, first compound 0.0316 µM) 10.5%

CC(C)n1c(=O)n(C)c2cnc3cc(F)c(-c4ccc(OCCCN5CCCCC5)nc4)cc3c21 + Cn1nnc2c(C(N)=O)ncn2c1=O
4870 nM: IC50 (second compound 31.6 µM)
> 10000 nM: IC50 (second compound 1 µM) | IC50 (second compound 3.16 µM)
inactive: viability, T/C (second compound 1 µM, first compound 0.0316 µM) 99.6% | viability, T/C (second compound 1 µM, first compound 0.1 µM) 90.9% | viability, T/C (second compound 1 µM, first compound 0.316 µM) 93.2% | viability, T/C (second compound 1 µM, first compound 1 µM) 101% | viability, T/C (second compound 1 µM, first compound 3.16 µM) 99.6% | viability, T/C (second compound 1 µM, first compound 10 µM) 54.7% | viability, T/C (second compound 3.16 µM, first compound 0.0316 µM) 101% | viability, T/C (second compound 3.16 µM, first compound 0.1 µM) 92.5% | viability, T/C (second compound 3.16 µM, first compound 0.316 µM) 98.8% | viability, T/C (second compound 3.16 µM, first compound 1 µM) 102% | viability, T/C (second compound 3.16 µM, first compound 3.16 µM) 88.4% | viability, T/C (second compound 3.16 µM, first compound 10 µM) 50.9% | viability, T/C (second compound 10 µM, first compound 0.0316 µM) 87.1% | viability, T/C (second compound 10 µM, first compound 0.1 µM) 97.7% | viability, T/C (second compound 10 µM, first compound 0.316 µM) 94.3% | viability, T/C (second compound 10 µM, first compound 1 µM) 79.9% | viability, T/C (second compound 10 µM, first compound 3.16 µM) 75.6% | viability, T/C (second compound 10 µM, first compound 10 µM) 41.6% | viability, T/C (second compound 31.6 µM, first compound 0.0316 µM) 93% | viability, T/C (second compound 31.6 µM, first compound 0.1 µM) 84.5% | viability, T/C (second compound 31.6 µM, first compound 0.316 µM) 86.1% | viability, T/C (second compound 31.6 µM, first compound 1 µM) 76.8% | viability, T/C (second compound 31.6 µM, first compound 3.16 µM) 63.5% | viability, T/C (second compound 31.6 µM, first compound 10 µM) 29.5% | viability, T/C (second compound 100 µM, first compound 0.0316 µM) 70.5% | viability, T/C (second compound 100 µM, first compound 0.1 µM) 69.6% | viability, T/C (second compound 100 µM, first compound 0.316 µM) 64.2% | viability, T/C (second compound 100 µM, first compound 1 µM) 51.5% | viability, T/C (second compound 100 µM, first compound 3.16 µM) 31% | viability, T/C (second compound 100 µM, first compound 10 µM) 24.9%
1040 nM: IC50 (second compound 100 µM)
7490 nM: IC50 (second compound 10 µM)

CC1COCCN1c1cc(-c2ccnn2C)c2ccnc(-c3ccn[nH]3)c2n1 (stereo not given) + CC[C@@]1(O)C(=O)OCc2c1cc1n(c2=O)Cc2cc3c(CN(C)C)c(O)ccc3nc2-1
inactive: viability, T/C [1] 26% | viability, T/C [2] 11.3%
< 31.6 nM: IC50 (second compound 0.003 µM) | IC50 (second compound 0.00949 µM) | IC50 (second compound 0.03 µM) | IC50 (second compound 0.0949 µM) | IC50 (second compound 0.3 µM)
active: viability, T/C [3] 4.59% | viability, T/C [4] 2.3% | viability, T/C [5] 1.84% | viability, T/C [6] 1.92% | viability, T/C (second compound 0.00949 µM, first compound 0.0316 µM) 6.62% | viability, T/C (second compound 0.00949 µM, first compound 0.1 µM) 4.56% | viability, T/C (second compound 0.00949 µM, first compound 0.316 µM) 3.33% | viability, T/C (second compound 0.00949 µM, first compound 1 µM) 2.14% | viability, T/C (second compound 0.00949 µM, first compound 3.16 µM) 1.49% | viability, T/C (second compound 0.00949 µM, first compound 10 µM) 1.95% | viability, T/C (second compound 0.03 µM, first compound 0.0316 µM) 6.54% | viability, T/C (second compound 0.03 µM, first compound 0.1 µM) 4.67% | viability, T/C (second compound 0.03 µM, first compound 0.316 µM) 3.37% | viability, T/C (second compound 0.03 µM, first compound 1 µM) 2.33% | viability, T/C (second compound 0.03 µM, first compound 3.16 µM) 1.73% | viability, T/C (second compound 0.03 µM, first compound 10 µM) 1.79% | viability, T/C (second compound 0.0949 µM, first compound 0.0316 µM) 8.42% | viability, T/C (second compound 0.0949 µM, first compound 0.1 µM) 6.2% | viability, T/C (second compound 0.0949 µM, first compound 0.316 µM) 4.79% | viability, T/C (second compound 0.0949 µM, first compound 1 µM) 2.58% | viability, T/C (second compound 0.0949 µM, first compound 3.16 µM) 1.54% | viability, T/C (second compound 0.0949 µM, first compound 10 µM) 1.64% | viability, T/C (second compound 0.3 µM, first compound 0.0316 µM) 5.08% | viability, T/C (second compound 0.3 µM, first compound 0.1 µM) 3.04% | viability, T/C (second compound 0.3 µM, first compound 0.316 µM) 2.79% | viability, T/C (second compound 0.3 µM, first compound 1 µM) 2.96% | viability, T/C (second compound 0.3 µM, first compound 3.16 µM) 1.02% | viability, T/C (second compound 0.3 µM, first compound 10 µM) 0.73%
